Assay results as given in ChEMBL document CHEMBL3046827, “Synthesis and antimicrobial activities of N-chloroacetyl-2,6-diarylpiperidin-4-ones” (2007).
Values after ≈ are worked out from the molar mass of the structure shown. Active and inactive are the calls of the source. The calls are words filed in the database; no cut-off is given here.

Assays:
[1] = test system: Aspergillus flavus; assay: Antifungal activity against Aspergillus flavus after 72 to 96 hr by two-fold serial dilution method; assay type: functional
[2] = test system: Aspergillus niger; assay: Antifungal activity against Aspergillus niger after 72 to 96 hr by two-fold serial dilution method; assay type: functional
[3] = test system: Rhizopus; assay: Antifungal activity against Rhizopus sp. after 72 to 96 hr by two-fold serial dilution method; assay type: functional
[4] = test system: Candida albicans; assay: Antifungal activity against Candida albicans after 72 to 96 hr by two-fold serial dilution method; assay type: functional
[5] = test system: Cryptococcus neoformans; assay: Antifungal activity against Cryptococcus neoformans after 72 to 96 hr by two-fold serial dilution method; assay type: functional
[6] = test system: Salmonella typhi; assay: Antibacterial activity against Salmonella enterica subsp. enterica serovar Typhi after 24 hr by twofold serial dilution method; assay type: functional
[7] = test system: Pseudomonas aeruginosa; assay: Antibacterial activity against Pseudomonas aeruginosa after 24 hr by twofold serial dilution method; assay type: functional
[8] = test system: Escherichia coli; assay: Antibacterial activity against Escherichia coli after 24 hr by two-fold serial dilution method; assay type: functional
[9] = test system: Bacillus subtilis; assay: Antibacterial activity against Bacillus subtilis after 24 hr by two-fold serial dilution method; assay type: functional
[10] = test system: Staphylococcus aureus; assay: Antibacterial activity against Staphylococcus aureus after 24 hr by two-fold serial dilution method; assay type: functional
[11] = test system: Aspergillus flavus; assay: Antifungal activity against Aspergillus flavus assessed as growth inhibition at 200 ug/mL after 72 to 96 hr by two-fold serial dilution method; assay type: functional, organism-based
[12] = test system: Aspergillus niger; assay: Antifungal activity against Aspergillus niger assessed as growth inhibition at 200 ug/mL after 72 to 96 hr by two-fold serial dilution method; assay type: functional, organism-based
[13] = test system: Rhizopus; assay: Antifungal activity against Rhizopus sp. assessed as growth inhibition at 200 ug/mL after 72 to 96 hr by two-fold serial dilution method; assay type: functional, organism-based
[14] = test system: Cryptococcus neoformans; assay: Antifungal activity against Cryptococcus neoformans assessed as growth inhibition at 200 ug/mL after 72 to 96 hr by two-fold serial dilution method; assay type: functional, organism-based
[15] = test system: Escherichia coli; assay: Antibacterial activity against Escherichia coli assessed as growth inhibition at 200 ug/mL after 24 hr by two-fold serial dilution method; assay type: functional, organism-based
[16] = test system: Bacillus subtilis; assay: Antibacterial activity against Bacillus subtilis assessed as growth inhibition at 200 ug/mL after 24 hr by two-fold serial dilution method; assay type: functional, organism-based

Row | SMILES | MIC [1] [µg/mL] | MIC [2] [µg/mL] | MIC [3] [µg/mL] | MIC [4] [µg/mL] | MIC [5] [µg/mL] | MIC [6] [µg/mL] | MIC [7] [µg/mL] | MIC [8] [µg/mL] | MIC [9] [µg/mL] | MIC [10] [µg/mL] | growth inhibition (GI) [11] | growth inhibition (GI) [12] | growth inhibition (GI) [13] | growth inhibition (GI) [14] | growth inhibition (GI) [15] | growth inhibition (GI) [16]
1 | CC1C(=O)CC(c2ccc(Cl)cc2)N(C(=O)CCl)C1c1ccc(Cl)cc1 (configuration not stated) | 25 (≈ 60.9 µM) | 50 (≈ 122 µM) | 25 (≈ 60.9 µM) | 100 (≈ 243 µM) | 100 (≈ 243 µM) | 100 (≈ 243 µM) | 12.5 (≈ 30.4 µM) | 25 (≈ 60.9 µM) | 100 (≈ 243 µM) | 50 (≈ 122 µM) | – | – | – | – | – | –
2 | CC1C(=O)CC(c2ccccc2)N(C(=O)CCl)C1c1ccccc1 (configuration not stated) | 200 (≈ 585 µM) | 200 (≈ 585 µM) | 100 (≈ 293 µM) | 200 (≈ 585 µM) | 100 (≈ 293 µM) | 50 (≈ 146 µM) | 200 (≈ 585 µM) | 100 (≈ 293 µM) | 100 (≈ 293 µM) | 100 (≈ 293 µM) | – | – | – | – | – | –
3 | COc1ccc(C2C(C)C(=O)C(C)C(c3ccc(OC)cc3)N2C(=O)CCl)cc1 (configuration not stated) | 50 (≈ 120 µM) | 25 (≈ 60.1 µM) | 100 (≈ 240 µM) | 100 (≈ 240 µM) | 100 (≈ 240 µM) | 25 (≈ 60.1 µM) | 100 (≈ 240 µM) | 100 (≈ 240 µM) | 50 (≈ 120 µM) | 50 (≈ 120 µM) | – | – | – | – | – | –
4 | Cc1ccc(C2CC(=O)C(C)C(c3ccc(C)cc3)N2C(=O)CCl)cc1 (configuration not stated) | 12.5 (≈ 33.8 µM) | 12.5 (≈ 33.8 µM) | 50 (≈ 135 µM) | 50 (≈ 135 µM) | 25 (≈ 67.6 µM) | 50 (≈ 135 µM) | 100 (≈ 270 µM) | 25 (≈ 67.6 µM) | 12.5 (≈ 33.8 µM) | 100 (≈ 270 µM) | – | – | – | – | – | –
5 | CC1C(=O)C(C)C(c2ccc(Cl)cc2)N(C(=O)CCl)C1c1ccc(Cl)cc1 (configuration not stated) | 100 (≈ 235 µM) | 50 (≈ 118 µM) | 100 (≈ 235 µM) | 200 (≈ 471 µM) | 50 (≈ 118 µM) | 25 (≈ 58.9 µM) | 100 (≈ 235 µM) | 50 (≈ 118 µM) | 100 (≈ 235 µM) | 12.5 (≈ 29.4 µM) | – | – | – | – | – | –
6 | Cc1ccc(C2C(C)C(=O)C(C)C(c3ccc(C)cc3)N2C(=O)CCl)cc1 (configuration not stated) | 50 (≈ 130 µM) | 100 (≈ 260 µM) | 25 (≈ 65.1 µM) | 50 (≈ 130 µM) | 50 (≈ 130 µM) | 100 (≈ 260 µM) | 200 (≈ 521 µM) | 50 (≈ 130 µM) | 100 (≈ 260 µM) | 200 (≈ 521 µM) | – | – | – | – | – | –
7 | O=C(O)c1cn(C2CC2)c2cc(N3CCNCC3)c(F)cc2c1=O [CIPROFLOXACIN] | – | – | – | – | – | 50 (≈ 151 µM) | – | 25 (≈ 75.4 µM) | – | – | – | – | – | – | – | –
8 | CC(C)C1C(=O)CC(c2ccccc2)N(C(=O)CCl)C1c1ccccc1 (configuration not stated) | – | 100 (≈ 270 µM) | 100 (≈ 270 µM) | 50 (≈ 135 µM) | 200 (≈ 541 µM) | 100 (≈ 270 µM) | 200 (≈ 541 µM) | 200 (≈ 541 µM) | 200 (≈ 541 µM) | 100 (≈ 270 µM) | inactive | – | – | – | – | –
9 | CN[C@@H]1[C@H](O[C@H]2[C@H](O[C@H]3[C@H](O)[C@@H](O)[C@H](N=C(N)N)[C@@H](O)[C@@H]3N=C(N)N)O[C@@H](C)[C@]2(O)C=O)O[C@@H](CO)[C@H](O)[C@H]1O [STREPTOMYCIN] | – | – | – | – | – | 25 (≈ 43 µM) | 50 (≈ 86 µM) | 50 (≈ 86 µM) | 12.5 (≈ 21.5 µM) | 25 (≈ 43 µM) | – | – | – | – | – | –
10 | COc1ccc(C2CC(=O)C(C)C(c3ccc(OC)cc3)N2C(=O)CCl)cc1 (configuration not stated) | 50 (≈ 124 µM) | 50 (≈ 124 µM) | 25 (≈ 62.2 µM) | 100 (≈ 249 µM) | 100 (≈ 249 µM) | 100 (≈ 249 µM) | 50 (≈ 124 µM) | 100 (≈ 249 µM) | 200 (≈ 498 µM) | 25 (≈ 62.2 µM) | – | – | – | – | – | –
11 | C[C@@H]1[C@H](O)[C@@H](C)/C=C/C=C/C=C/C=C/C=C/C=C/C=C/[C@H](O[C@@H]2O[C@H](C)[C@@H](O)[C@H](N)[C@@H]2O)C[C@@H]2O[C@](O)(C[C@@H](O)C[C@@H](O)[C@H](O)CC[C@@H](O)C[C@@H](O)CC(=O)O[C@H]1C)C[C@H](O)[C@H]2C(=O)O [AMPHOTERICIN B] | 50 (≈ 54.1 µM) | 50 (≈ 54.1 µM) | 25 (≈ 27.1 µM) | 25 (≈ 27.1 µM) | 25 (≈ 27.1 µM) | – | – | – | – | – | – | – | – | – | – | –
12 | CCC1C(=O)CC(c2ccc(Cl)cc2)N(C(=O)CCl)C1c1ccc(Cl)cc1 (configuration not stated) | 25 (≈ 58.9 µM) | 12.5 (≈ 29.4 µM) | 50 (≈ 118 µM) | 100 (≈ 235 µM) | 50 (≈ 118 µM) | 12.5 (≈ 29.4 µM) | 50 (≈ 118 µM) | 50 (≈ 118 µM) | 25 (≈ 58.9 µM) | 25 (≈ 58.9 µM) | – | – | – | – | – | –
13 | O=C1CC(c2ccccc2)N(C(=O)CCl)C(c2ccccc2)C1 (configuration not stated) | 100 (≈ 305 µM) | – | – | 200 (≈ 610 µM) | – | 50 (≈ 153 µM) | 100 (≈ 305 µM) | – | – | 200 (≈ 610 µM) | – | inactive | inactive | inactive | inactive | inactive
